One test concerns the target T1, Mouse EL (Mus musculus, UniProt Q9WVG5).
T1 construct: host or cells: not described for mouse EL
T1 sequence (Q9WVG5 21-500): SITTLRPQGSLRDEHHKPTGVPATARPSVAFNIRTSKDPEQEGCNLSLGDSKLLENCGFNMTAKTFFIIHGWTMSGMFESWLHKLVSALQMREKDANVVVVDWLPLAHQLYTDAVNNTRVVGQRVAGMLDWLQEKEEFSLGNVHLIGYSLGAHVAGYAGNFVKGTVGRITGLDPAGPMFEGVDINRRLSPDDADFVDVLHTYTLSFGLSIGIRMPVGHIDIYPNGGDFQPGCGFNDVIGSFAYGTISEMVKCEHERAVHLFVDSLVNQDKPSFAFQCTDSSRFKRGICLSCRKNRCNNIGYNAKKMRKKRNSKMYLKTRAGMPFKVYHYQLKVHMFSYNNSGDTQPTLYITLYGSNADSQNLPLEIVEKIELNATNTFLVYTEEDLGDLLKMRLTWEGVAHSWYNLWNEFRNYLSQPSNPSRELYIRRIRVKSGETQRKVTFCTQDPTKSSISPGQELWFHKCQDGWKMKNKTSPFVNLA
Briefly: Endothelial Lipase Assay, cell surface lipase activity (mouse). It is filed as cell-based. The settings on record: PLA1 substrate 10 μM, fluorescence reaction rate, several values in a cell are repeat determinations. On the procedure:
(§1) Endothelial Lipase Assay (Human/Mouse)
(§2) To assay for cell surface lipase activity, cells expressing human endothelial lipase (EL) or LPL were plated in CellBIND® 384-well plates (Corning, Lowell, Mass.) in 25 μL serum free medium at a density of 2000 cells/well. After 18-24 hours incubation at 37° C., the medium was removed and replaced with 15 μL assay buffer [Hank's Buffered Saline Solution with 25 mM HEPES pH 7.2] and 15 μL PLA1 for a final concentration of 10 μM using a Multidrop reagent dispenser. Fluorescence signal was monitored for 30 min at 37° C. on a Safire II plate reader in kinetic mode (60 cycles, kinetic interval: 30 seconds) with an excitation wavelength of 490 nm and an emission wavelength of 515 nm. Linear regression of the fluorescence intensity collected from 480 to 1500 seconds was used to calculate the reaction rate (the slope) and the slopes were used to calculate IC50 values where appropriate. The amount of BODIPY-labeled product generated was calculated at the 30 min time point as determined from standard curve analysis of purified BODIPY FL C5. In all studies using the inhibitor Ebelactone B, consistent results were obtained when it was dissolved as a stock in DMSO, immediately before use.

In test [1] the target is T2, human endothelial lipase (EL) (Homo sapiens, UniProt Q9Y5X9).
T2 construct: host or cells: cells expressing human endothelial lipase
T2 sequence (Q9Y5X9 21-500): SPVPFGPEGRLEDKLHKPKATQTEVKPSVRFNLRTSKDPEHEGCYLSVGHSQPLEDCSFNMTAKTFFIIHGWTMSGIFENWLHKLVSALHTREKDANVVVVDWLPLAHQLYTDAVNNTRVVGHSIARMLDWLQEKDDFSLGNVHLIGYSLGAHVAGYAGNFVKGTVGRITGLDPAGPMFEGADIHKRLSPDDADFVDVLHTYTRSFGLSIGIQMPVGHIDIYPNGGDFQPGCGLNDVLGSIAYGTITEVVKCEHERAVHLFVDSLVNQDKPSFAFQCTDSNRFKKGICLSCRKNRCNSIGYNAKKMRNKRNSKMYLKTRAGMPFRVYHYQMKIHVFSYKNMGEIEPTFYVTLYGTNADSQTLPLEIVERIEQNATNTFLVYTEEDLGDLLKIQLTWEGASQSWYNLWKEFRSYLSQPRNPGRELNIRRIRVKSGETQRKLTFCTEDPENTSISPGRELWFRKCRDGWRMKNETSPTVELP
Briefly: Endothelial Lipase Assay, cell surface lipase activity (human). Format: cell-based. The settings on record: cells expressing human EL, PLA1 substrate 10 μM, fluorescence reaction rate; several values in a cell are repeat determinations. On the procedure: as §1, §2

Consider `O=C(CCCCCOc1cccc(F)c1)C(=O)NCc1nnc(-c2ccc(OCc3ccccc3)cc2)o1` [Compound 69, N-((5-(4-(benzyloxy)phenyl)-1,3,4-oxadiazol-2-yl)methyl)-7-(3-fluorophenoxy)-2-oxoheptanamide], for which the IC50 at Mouse EL is 835 nM; in test [1], 272 nM.
On the same counts, the results for `O=C(CCCCCCc1ccccc1)C(=O)NCc1nnc(-c2ccc(OCc3ccc(F)cc3)cc2)o1` [Compound 80] are 214 nM and 600 nM.
On to `O=C(CCCCCc1ccc(-c2ccccc2)cc1)C(=O)NCc1nnc(-c2ccc3ccccc3c2)o1` [Compound 36], for which the IC50 on Mouse EL came to 6600 nM; in test [1], 10200 nM.
In the case of `O=C(CCCCCCc1ccccc1)C(=O)NCc1nnc(-c2ccc(OCc3ccccn3)cc2)s1` [Compound 139], the IC50 against Mouse EL came to 42 nM; in test [1] it was 71 nM.
For the compound `O=C(CCCCCOc1cccc(Cl)c1)C(=O)NCc1nnc(-c2ccc(Oc3ccccc3)cc2)s1` [Compound 134], the IC50 against Mouse EL turned out to be 243 nM; in test [1], 604 nM.
`CN(C)CCNC(=O)c1ccc(-c2nnc(CNC(=O)C(=O)CCCCCCc3ccccc3)o2)cc1` [Compound 149]: the IC50 against Mouse EL came to 3400 nM; in test [1] it was 4250 nM.
On the same counts, the results for `Cc1ccc(-c2nnc(CNC(=O)C(=O)CCCCCOc3ccccc3)o2)cc1` [Compound 47] are 3030 nM and 3190 nM.
As for `O=C(CCCCCOc1cc(F)cc(F)c1)C(=O)NCc1nnc(-c2ccc(Oc3ccccc3)cc2)s1` [Compound 133], the IC50 at Mouse EL was 176 nM; in test [1], 386 nM.
Regarding `O=C(CCCCCCc1ccccc1)C(=O)NCc1nnc(-c2ccc(Oc3ccc(Cl)cc3)cc2)o1` [Compound 59], the values for the IC50 (against Mouse EL; in test [1]) were 1110 nM and 2590 nM, respectively.
For `O=C(CCCCCOc1ccccc1)C(=O)NCc1nnc(-c2cccc(Oc3ccccc3)c2)o1` [Compound 60], the concentration for half-maximal inhibition (IC50) against Mouse EL amounted to 9800 nM; in test [1], 7120 nM.
Turning to `CC(C)(C)OC(=O)N(Cc1ccccc1)c1ccc(-c2nnc(CNC(=O)C(=O)CCCCCCc3ccccc3)o2)cc1` [Compound 115], the IC50 against Mouse EL came to 254 nM; in test [1] it was 515 nM.
Consider `O=C(CCCCCNc1ncccn1)C(=O)NCc1nnc(-c2ccccc2)o1` [Compound 148], for which the values for the IC50 (at Mouse EL; in test [1]) were 14700 nM and 12300 nM, respectively.
In the same order, the values of `O=C(CCCCCCc1cncnc1)C(=O)NCc1nnc(-c2ccc(Oc3ccccc3)cc2)o1` [Compound 120] are 973 nM and 1510 nM.
As to `O=C(CCCCCCc1ccccc1)C(=O)NCc1nnc(-c2cc(F)cc(F)c2)o1` [Compound 26], the results for the IC50 (against Mouse EL; in test [1]) were 436 nM and 668 nM, respectively.
In the case of `O=C(CCCCCCc1ccccc1)C(=O)NCc1nnc(-c2ccncc2)o1` [Compound 178], the figures for the IC50 (on Mouse EL; in test [1]) were 7320 nM and 11600 nM, respectively.
As to `O=C(CCCCCOc1cc(F)ccc1F)C(=O)NCc1nnc(-c2ccc(Oc3ccccc3)cc2)o1` [Compound 98], the IC50 on Mouse EL amounted to 774 nM; in test [1], 1730 nM.
Consider `O=C(CCCCCCc1ccccc1)C(=O)NCc1nnc(-c2cccc(Oc3ccccc3)c2)o1` [Compound 58], for which the IC50 against Mouse EL is 1720 nM; in test [1] it was 4890 nM.
On the same counts, the results for `O=C(CCCCCCc1ccc(F)nc1)C(=O)NCc1nnc(-c2ccc(OCc3ccnc(Cl)c3)cc2)s1` [Compound 169] are 62 nM and 85 nM.
On the same counts, the results for `O=C(CCCCCCc1ccccc1)C(=O)NCc1nnc(-c2ccc(Oc3cccc(Cl)c3)cc2)o1` [Compound 66] are 366 nM and 255 nM.
Regarding `O=C(CCCCCCc1ccccc1)C(=O)NCc1nnc(-c2ccc(OCc3cc[n+]([O-])cc3)cc2)s1` [Compound 156], the IC50 was found to be 383 nM against Mouse EL and 397 nM in test [1].
Consider `O=C(CCCCCOc1cccc(F)c1)C(=O)NCc1nnc(-c2ccc3ccccc3c2)o1` [Compound 54], for which the IC50 at Mouse EL is 802 nM; in test [1], 916 nM.

A word on the IC50: it is the midpoint of a concentration-inhibition curve. Read a low IC50 as greater potency.

The values above are taken from patent US8476302B2, “α-ketoamide derivatives useful endothelial lipase inhibitors” (Janssen Pharmaceutica N.V., priority 2010, dated 2013).
